US7186831B2, “5-halo-2-alkyl[1,2,4]triazolo[1,5-a]pyrimidin-7-amines” (priority 2001, dated 2007)

Assay: log P by HPLC
Assay type: physicochemical
Conditions: EEC directive 79/831 Annex V. A8 by HPLC (gradient method, acetonitrile/0.1% aqueous phosphoric acid)

| logP | SMILES |
| --- | --- |
| 3.4 | Fc1cccc(Cl)c1-c1c(Cl)nc2nc(C3CC3)nn2c1NCC1CC1 [compound 482] |
| 3.31 | C=C(C)CNc1c(-c2c(F)cccc2Cl)c(Cl)nc2nc(C3CC3)nn12 [compound 483] |
| 3.71 | Clc1ccccc1-c1c(Cl)nc2nc(C3CC3)nn2c1N1CCCCO1 [compound 484] |
| 3.74 | Fc1cc(F)c(-c2c(Cl)nc3nc(C4CC4)nn3c2N2CCCCO2)c(F)c1 [compound 485] |
| 3.74 | Fc1cccc(Cl)c1-c1c(Cl)nc2nc(C3CC3)nn2c1N1CCCCO1 [compound 486] |
| 3.42 | Fc1cc(F)c(-c2c(Cl)nc3nc(C4CC4)nn3c2N2CCCCN2)c(F)c1 [compound 487] |
| 3.39 | Clc1ccccc1-c1c(Cl)nc2nc(C3CC3)nn2c1N1CCCCN1 [compound 488] |
| 4.37 | C=C(C)CN(CC)c1c(-c2ccc(F)cc2F)c(Cl)nc2nc(C3CC3)nn12 [compound 491] |
| 3.76 | CC(C)CNc1c(-c2ccccc2Cl)c(Cl)nc2nc(C3CC3)nn12 [compound 492] |
| 4.27 | Clc1ccccc1-c1c(Cl)nc2nc(C3CC3)nn2c1N1CCCCC1 [compound 493] |
| 3.76 | CCC(C)Nc1c(-c2ccccc2Cl)c(Cl)nc2nc(C3CC3)nn12 (stereo not shown) [compound 494] |
| 3.41 | C=C(C)CNc1c(-c2ccccc2Cl)c(Cl)nc2nc(C3CC3)nn12 [compound 495] |
| 4.32 | C=C(C)CN(C)c1c(-c2ccccc2Cl)c(Cl)nc2nc(C3CC3)nn12 [compound 496] |
| 4.41 | CC(C)CN(C)c1c(-c2ccccc2Cl)c(Cl)nc2nc(C3CC3)nn12 [compound 497] |
| 3.99 | CC1CCCN1c1c(-c2ccccc2Cl)c(Cl)nc2nc(C3CC3)nn12 (stereo not shown) [compound 498] |
| 4.61 | CC1CCCCN1c1c(-c2ccccc2Cl)c(Cl)nc2nc(C3CC3)nn12 (stereo not shown) [compound 499] |
| 3.22 | FC(F)(F)CNc1c(-c2ccccc2Cl)c(Cl)nc2nc(C3CC3)nn12 [compound 500] |
| 4.41 | FC(F)(F)C1CCCN1c1c(-c2ccccc2Cl)c(Cl)nc2nc(C3CC3)nn12 (stereo not shown) [compound 501] |
| 3.68 | Cc1nc2nc(Cl)c(-c3c(F)cc(F)cc3F)c(N(C)CC3CC3(Cl)Cl)n2n1 (stereo not shown) [compound 502] |
| 3.5 | CC(C)Nc1c(-c2ccc(F)cc2Cl)c(Cl)nc2nc(C3CC3)nn12 [compound 503] |
| 3.58 | Fc1ccc(-c2c(Cl)nc3nc(C4CC4)nn3c2N2CCCCN2)c(Cl)c1 [compound 504] |
| 3.35 | Cc1nc2nc(Cl)c(-c3c(F)cc(F)cc3F)c(NC(C)C(C)C)n2n1 (stereo not shown) [compound 506] |
| 4.18 | CN(CC1CC1(Cl)Cl)c1c(-c2ccc(F)cc2F)c(Cl)nc2nc(C3CC3)nn12 (stereo not shown) [compound 507] |
| 4.29 | CN(CC1CC1(Cl)Cl)c1c(-c2ccccc2Cl)c(Cl)nc2nc(C3CC3)nn12 (stereo not shown) [compound 508] |
| 4.26 | CN(CC1CC1(Cl)Cl)c1c(-c2c(F)cc(F)cc2F)c(Cl)nc2nc(C3CC3)nn12 (stereo not shown) [compound 509] |
| 4.59 | CCC1=CCN(c2c(-c3ccc(F)cc3F)c(Cl)nc3nc(C4CC4)nn23)CC1 [compound 511] |
| 4.14 | CC1=CCCN(c2c(-c3ccc(F)cc3F)c(Cl)nc3nc(C4CC4)nn23)C1 [compound 512] |
| 3.45 | Fc1ccc(-c2c(Cl)nc3nc(C4CC4)nn3c2N2CCC(F)CC2)c(F)c1 [compound 513] |
| 3.78 | CC(C)(C)OC(=O)NC1CCN(c2c(-c3ccc(F)cc3F)c(Cl)nc3nc(C4CC4)nn23)CC1 [compound 514] |

Second part, the molecule before the results:

| SMILES | logP |
| --- | --- |
| Cc1nc2nc(Cl)c(-c3c(F)cccc3F)c(NOCc3ccccc3)n2n1 [compound 427] | 2.93 |
| Cc1nc2nc(Cl)c(-c3c(F)cccc3F)c(NOCc3cc(Cl)cc(Cl)c3)n2n1 [compound 428] | 3.75 |
| Cc1nc2nc(Cl)c(-c3c(F)cccc3F)c(NOCc3ccc(Cl)cc3Cl)n2n1 [compound 429] | 3.69 |
| Cc1nc2nc(Cl)c(-c3c(F)cccc3F)c(NOCc3ccc(C(F)(F)F)cc3)n2n1 [compound 430] | 3.44 |
| Cc1nc2nc(Cl)c(-c3c(F)cccc3F)c(NOCc3ccccc3Cl)n2n1 [compound 431] | 3.13 |
| Cc1nc2nc(Cl)c(-c3c(F)cccc3F)c(NOCc3ccc(F)cc3)n2n1 [compound 432] | 2.9 |
| Cc1nc2nc(Cl)c(-c3c(F)cccc3F)c(NOCc3cccc(C(F)(F)F)c3)n2n1 [compound 433] | 3.41 |
| CCCCONc1c(-c2c(F)cccc2F)c(Cl)nc2nc(C)nn12 [compound 434] | 2.96 |
| Cc1nc2nc(Cl)c(-c3c(F)cccc3F)c(NOCc3c(Cl)cccc3Cl)n2n1 [compound 435] | 3.31 |
| CONc1c(-c2c(F)cccc2F)c(Cl)nc2nc(C)nn12 [compound 436] | 2.07 |
| Cc1nc2nc(Cl)c(-c3ccccc3Cl)c(NC(C)C(F)(F)F)n2n1 (stereo not shown) [compound 437] | 3.1 |
| Cc1nc2nc(F)c(-c3ccccc3Cl)c(NC(C)C(F)(F)F)n2n1 (stereo not shown) [compound 438] | 2.97 |
| Cc1nc2nc(Cl)c(-c3c(F)cc(F)cc3F)c(NC3CC3F)n2n1 (stereo not shown) [compound 439] | 2.3 |
| CCOC(=O)CN(c1c(-c2c(F)cccc2F)c(Cl)nc2nc(C)nn12)C1CC1 [compound 440] | 3 |
| Cc1nc2nc(Cl)c(-c3c(F)cccc3F)c(N3CCC(N)C3)n2n1 (stereo not shown) [compound 441] | 1.19 |
| CC(=O)C1CCN(c2c(-c3c(F)cccc3F)c(Cl)nc3nc(C)nn23)CC1 [compound 442] | 2.49 |
| Cc1nc2nc(Cl)c(-c3c(F)cccc3F)c(N3CCC(F)CC3)n2n1 [compound 443] | 2.85 |
| Cc1ccc(Nc2c(-c3c(F)cccc3F)c(Cl)nc3nc(C)nn23)cc1 [compound 444] | 3.01 |
| Cc1nc2nc(Cl)c(-c3c(F)cccc3F)c(Nc3ccc(F)cc3)n2n1 [compound 445] | 2.71 |
| Cc1nc2nc(Cl)c(-c3c(F)cccc3F)c(N3CCCc4ccccc43)n2n1 [compound 446] | 3.34 |
| C=C(C)CN(CC)c1c(-c2ccccc2Cl)c(Cl)nc2nc(C3CC3)nn12 [compound 447] | 4.59 |
| C=C(C)CN(CC)c1c(-c2c(F)cc(F)cc2F)c(Cl)nc2nc(C3CC3)nn12 [compound 448] | 4.49 |
| C=C(C)CN(CC)c1c(-c2c(F)cccc2Cl)c(Cl)nc2nc(C3CC3)nn12 [compound 449] | 4.61 |
| CC(=O)NC1CCN(c2c(-c3ccc(F)cc3F)c(Cl)nc3nc(C)nn23)C1 (stereo not shown) [compound 450] | 1.73 |
| Cc1nc2nc(Cl)c(-c3ccc(F)cc3F)c(N3CC(C)CC(C)C3)n2n1 (stereo not shown) [compound 451] | 4.16 |
| Cc1nc2nc(Cl)c(-c3ccc(F)cc3F)c(N3CCCC(O)C3)n2n1 (stereo not shown) [compound 452] | 2.2 |
| COC(=O)C1CCCCN1c1c(-c2ccc(F)cc2F)c(Cl)nc2nc(C)nn12 (stereo not shown) [compound 453] | 3.36 |

| SMILES | logP |
| --- | --- |
| Cc1nc2nc(Cl)c(-c3ccc(F)cc3F)c(N3CCC(F)CC3)n2n1 [compound 454] | 2.96 |
| Cc1nc2nc(Cl)c(-c3ccc(F)cc3F)c(N3CC(C)OC(C)C3)n2n1 (stereo not shown) [compound 455] | 2.94 |
| Cc1cccc(Nc2c(-c3ccc(F)cc3F)c(Cl)nc3nc(C)nn23)c1 [compound 456] | 3 |
| CC(Nc1c(-c2c(F)cccc2Cl)c(Cl)nc2nc(C3CC3)nn12)C(F)(F)F (stereo not shown) [compound 457] | 3.59 |
| CC(Nc1c(-c2c(F)cc(F)cc2F)c(Cl)nc2nc(C3CC3)nn12)C(F)(F)F (stereo not shown) [compound 458] | 3.58 |
| CC(C)CNc1c(-c2c(F)cc(F)cc2F)c(Cl)nc2nc(C3CC3)nn12 [compound 460] | 3.69 |
| CC(C)(C)CNc1c(-c2c(F)cc(F)cc2F)c(Cl)nc2nc(C3CC3)nn12 [compound 461] | 4.19 |
| CCC(C)Nc1c(-c2c(F)cc(F)cc2F)c(Cl)nc2nc(C3CC3)nn12 (stereo not shown) [compound 462] | 3.69 |
| Fc1cc(F)c(-c2c(Cl)nc3nc(C4CC4)nn3c2NC2CCCC2)c(F)c1 [compound 463] | 3.9 |
| CC(C)Nc1c(-c2c(F)cc(F)cc2F)c(Cl)nc2nc(C3CC3)nn12 [compound 464] | 3.35 |
| Fc1cc(F)c(-c2c(Cl)nc3nc(C4CC4)nn3c2NCC2CC2)c(F)c1 [compound 465] | 3.43 |
| C=C(C)CNc1c(-c2c(F)cc(F)cc2F)c(Cl)nc2nc(C3CC3)nn12 [compound 466] | 3.34 |
| CC(C)CN(C)c1c(-c2c(F)cc(F)cc2F)c(Cl)nc2nc(C3CC3)nn12 [compound 467] | 4.36 |
| COCCN(C)c1c(-c2c(F)cc(F)cc2F)c(Cl)nc2nc(C3CC3)nn12 [compound 468] | 3.29 |
| C=C(C)CN(C)c1c(-c2c(F)cc(F)cc2F)c(Cl)nc2nc(C3CC3)nn12 [compound 469] | 4.27 |
| CCN(CCOC)c1c(-c2c(F)cc(F)cc2F)c(Cl)nc2nc(C3CC3)nn12 [compound 470] | 3.64 |
| CC1CCCN1c1c(-c2c(F)cc(F)cc2F)c(Cl)nc2nc(C3CC3)nn12 (stereo not shown) [compound 471] | 3.9 |
| Fc1cc(F)c(-c2c(Cl)nc3nc(C4CC4)nn3c2N2CCCC2)c(F)c1 [compound 472] | 3.52 |
| CC1CCN(c2c(-c3c(F)cc(F)cc3F)c(Cl)nc3nc(C4CC4)nn23)CC1 [compound 473] | 4.66 |
| Fc1cc(F)c(-c2c(Cl)nc3nc(C4CC4)nn3c2N2CCCCC2)c(F)c1 [compound 474] | 4.22 |
| Fc1cc(F)c(-c2c(Cl)nc3nc(C4CC4)nn3c2N2CCOCC2)c(F)c1 [compound 475] | 3.02 |
| CC(C)CNc1c(-c2c(F)cccc2Cl)c(Cl)nc2nc(C3CC3)nn12 [compound 476] | 3.64 |
| CC(C)(C)CNc1c(-c2c(F)cccc2Cl)c(Cl)nc2nc(C3CC3)nn12 [compound 477] | 4.08 |
| CCC(C)Nc1c(-c2c(F)cccc2Cl)c(Cl)nc2nc(C3CC3)nn12 (stereo not shown) [compound 478] | 3.66 |
| Fc1cccc(Cl)c1-c1c(Cl)nc2nc(C3CC3)nn2c1NC1CCCC1 [compound 479] | 3.83 |
| Fc1cccc(Cl)c1-c1c(Cl)nc2nc(C3CC3)nn2c1NCC(F)(F)F [compound 481] | 3.19 |
